Laboratory results taken from patent publication US20120208781A1, “AMINOGLYCOSIDE DOSING REGIMENS” (Achaogen, Inc., priority 2009, published 2012).

How the values were obtained:
[1] = tested on: E. coli; experiment: MIC, further Brooklyn patient isolates: E. coli; assay type: cell-based; parameters: unit not given beside the values; conditions: E. coli (n = 3071)
Procedure: (§1) Minimum inhibitory concentrations (MIC) were determined by reference Clinical and Laboratory Standards Institute (CLSI) broth microdilution methods per M7-A7 [2006]. Briefly, serial two-fold dilutions of Compound 1 and comparator AGs (together, “the test compounds”) were prepared at 2× concentration in appropriate diluent. The dilutions were mixed in 96-well assay plates with bacterial inoculum. Bacteria were suspended in sterile saline and added to each assay plate to obtain a final concentration of 5.5×10^5 CFU/mL. The plates were incubated at 35° C. for 20 hours in ambient air. […] After incubation, assay plates were read using a microtiter plate reader at 600 nm.
(§2) Further studies analyzed a greater number of unique patient isolates obtained from Brooklyn, N.Y. hospitals (including those species described above). These species included Acinetobacter, E. coli, Enterobacter, Klebsiella, and Pseudomonas.

[2] = tested on: Enterobacter; experiment: MIC, further Brooklyn patient isolates: Enterobacter; assay type: cell-based; parameters: unit not given beside the values; conditions: Enterobacter (n = 206)
Procedure: as §1, §2

[3] = tested on: rat kidney; experiment: Rat nephrotoxicity model: kidney histopathology (H&E); assay type: in vivo, Sprague-Dawley rats; conditions: rats, 14 d once-daily
Procedure: This rat nephrotoxicity study design used 14 days of once-daily dosing of aminoglycosides in adult Sprague-Dawley rats. Rats were allowed full access to food and water, and aminoglycosides were dosed subcutaneously at 1 mL/kg dosing volume, formulated in water. Nephrotoxicity was assessed by monitoring changes in serum markers of glomerular filtration rate (GFR), namely blood urea nitrogen (BUN) and serum creatinine. Microscopic examination of kidney slices after fixation and hematoxylin and eosin (H&E) staining was also utilized, scoring for tubular dilation, cellular casts, interstitial inflammation, and regenerative changes to the tubules.

[4] = tested on: rat kidney; experiment: Rat nephrotoxicity model: serum markers of GFR (BUN, serum creatinine); assay type: in vivo, Sprague-Dawley rats; conditions: dose-response for BUN elevation

| MIC50 [1] | MIC90 [1] | MIC50 [2] | Structure (SMILES) | Histopathology score (0 to 5 Scale): Casts ([3]; 30 mg/kg) | Histopathology score (0 to 5 Scale): Dilation ([3]; 30 mg/kg) | Histopathology score (0 to 5 Scale): Inflammation ([3]; 30 mg/kg) | Histopathology score (0 to 5 Scale): Regeneration ([3]; 30 mg/kg) | Histopathology score (0 to 5 Scale): Casts ([3]; 100 mg/kg) | Histopathology score (0 to 5 Scale): Dilation ([3]; 100 mg/kg) | Histopathology score (0 to 5 Scale): Inflammation ([3]; 100 mg/kg) | Histopathology score (0 to 5 Scale): Regeneration ([3]; 100 mg/kg) | Histopathology score (0 to 5 Scale): Casts ([3]; 300 mg/kg) | Histopathology score (0 to 5 Scale): Dilation ([3]; 300 mg/kg) | Histopathology score (0 to 5 Scale): Inflammation ([3]; 300 mg/kg) | Histopathology score (0 to 5 Scale): Regeneration ([3]; 300 mg/kg) | apparent relative nephrotoxicity (ranking) [4] |
| --- | --- | --- | --- | --- | --- | --- | --- | --- | --- | --- | --- | --- | --- | --- | --- | --- |
| ≦0.25 | ≦0.25 | ≦0.25 | CO/N=C(\C(=O)N[C@@H]1C(=O)N2C(C(=O)[O-])=C(C[N+]3(C)CCCC3)CS[C@H]12)c1csc(N)n1 [FEP, cefepime] | – | – | – | – | – | – | – | – | – | – | – | – | – |
| ≦0.25 | – | – | CC(C)(O/N=C(\C(=O)N[C@@H]1C(=O)N2C(C(=O)[O-])=C(C[n+]3ccccc3)CS[C@H]12)c1csc(N)n1)C(=O)O [CAZ, ceftazidime] | – | – | – | – | – | – | – | – | – | – | – | – | – |
| – | – | – | NC[C@@H]1O[C@H](O[C@H]2[C@@H](O)[C@H](O[C@@H]3[C@@H](O)[C@H](N)C[C@H](N)[C@H]3O[C@H]3O[C@H](CO)[C@@H](O)[C@H](O)[C@H]3N)O[C@@H]2CO)[C@H](N)[C@@H](O)[C@@H]1O [Paromomycin, paromomycin] | 0 +/− 0 | 1 +/− 1 | 1.4 +/− 0.9 | 1.4 +/− 0.5 | 2.6 +/− 0.5 | 3.2 +/− 0.4 | 3 +/− 0 | 4 +/− 0 | 0 +/− 0 | 0 +/− 0 | 0 +/− 0 | 0 +/− 0 | Neomycin≈Gentamicin>Tobramycin>Apramycin≈Paromomycin>Amikacin |
